# Assay results as given in PubChem BioAssay AID328 (DTP/NCI, 2004).
# Where “and” joins values, the source holds several entries; their conditions need not be identical. Equal values may be shown once. Inconclusive results and toxic doses are left out. Non-standard residues stand in square brackets, D forms with d. Residues, ends and D or L forms follow the SMILES beside them. *: point of attachment. NMeY = CN[CH](Cc1ccc(O)cc1)C(=O)O; Bn = c1ccc(C*)cc1
# System: BDF1 mice, P388 leukemia ip, median survival T/C
# Experiment: NCI In Vivo Anticancer Drug Screen. Data for tumor model P388 Leukemia (intraperitoneal) in B6D2F1 (BDF1) mice
# Conditions: endpoint: median survival time, higher = longer survival
# In short: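 Mice carrying the transplantable tumour receive compound or vehicle. Survival is followed in each arm, and the treated measure is divided by the vehicle measure.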
# [1] = dose: 25.0 mg/kg/injection, schedule: Q01DX009 (ip), vehicle: Klucel (hydroxypropylcellulose) (HPC)
# [2] = dose: 50.0 mg/kg/injection, schedule: Q01DX009 (ip), vehicle: saline with Tween-80
# [3] = dose: 50.0 mg/kg/injection, schedule: Q04DX003 (ip), vehicle: saline with Tween-80
# [4] = dose: 100.0 mg/kg/injection, schedule: Q01DX009 (ip), vehicle: saline with Tween-80
# [5] = dose: 100.0 mg/kg/injection, schedule: Q04DX003 (ip), vehicle: saline with Tween-80
# [6] = dose: 200.0 mg/kg/injection, schedule: Q01DX009 (ip), vehicle: saline with Tween-80
# [7] = dose: 200.0 mg/kg/injection, schedule: Q04DX003 (ip), vehicle: saline with Tween-80
# [8] = dose: 400.0 mg/kg/injection, schedule: Q04DX003 (ip), vehicle: saline with Tween-80
# [9] = dose: 100.0 mg/kg/injection, schedule: Q01DX005 (ip), vehicle: saline
# [10] = dose: 100.0 mg/kg/injection, schedule: Q04DX003 (ip), vehicle: Klucel (hydroxypropylcellulose) (HPC)
# [11] = dose: 200.0 mg/kg/injection, schedule: Q04DX003 (ip), vehicle: Klucel (hydroxypropylcellulose) (HPC)
# [12] = dose: 400.0 mg/kg/injection, schedule: Q04DX003 (ip), vehicle: Klucel (hydroxypropylcellulose) (HPC)
# [13] = dose: 25.0 mg/kg/injection, schedule: Q01DX009 (ip), vehicle: saline with Tween-80
smiles,measurement,setting,value
O=NN(CCCl)C(=O)NCC1CCC(CNC(=O)N(CCCl)N=O)CC1 (configuration not stated),T/C,"dose: 3.13 mg/kg/injection, schedule: Q01DX009 (ip), vehicle: other",113 % of control
same,T/C,"dose: 6.25 mg/kg/injection, schedule: Q01DX009 (ip), vehicle: other",122 % of control
same,T/C,"dose: 12.5 mg/kg/injection, schedule: Q01DX009 (ip), vehicle: other",116 % of control
same,T/C,[1],154 % of control
same,T/C,"dose: 26.4 mg/kg/injection, schedule: Q01DX009 (ip), vehicle: other",154 % of control
same,T/C,"dose: 40.0 mg/kg/injection, schedule: Q01DX009 (ip), vehicle: other",159 % of control
same,T/C,"dose: 44.0 mg/kg/injection, schedule: Q01DX009 (ip), vehicle: other",227 % of control
same,T/C,"dose: 50.0 mg/kg/injection, schedule: Q01DX009 (ip), vehicle: Klucel (hydroxypropylcellulose) (HPC)",115 % of control
same,T/C,"dose: 66.0 mg/kg/injection, schedule: Q01DX009 (ip), vehicle: other",240 % of control
same,T/C,"dose: 66.0 mg/kg/injection, schedule: Q04DX003 (ip), vehicle: saline sonified",170 % of control
same,T/C,"dose: 100.0 mg/kg/injection, schedule: Q01DX009 (ip), vehicle: Klucel (hydroxypropylcellulose) (HPC)",169 % of control
same,T/C,"dose: 100.0 mg/kg/injection, schedule: Q01DX009 (ip), vehicle: other",272 % of control and 300 % of control
same,T/C,"dose: 100.0 mg/kg/injection, schedule: Q04DX003 (ip), vehicle: saline sonified",175 % of control and 185 % of control
same,T/C,"dose: 150.0 mg/kg/injection, schedule: Q01DX009 (ip), vehicle: other",245 % of control
same,T/C,"dose: 150.0 mg/kg/injection, schedule: Q04DX003 (ip), vehicle: saline sonified",180 % of control
same,T/C,"dose: 200.0 mg/kg/injection, schedule: Q01DX009 (ip), vehicle: Klucel (hydroxypropylcellulose) (HPC)",176 % of control
same,T/C,"dose: 200.0 mg/kg/injection, schedule: Q04DX003 (ip), vehicle: saline sonified",240 % of control
COc1ccccc1NC(=S)N(C)C,T/C,[2],100 % of control
same,T/C,[3],113 % of control
same,T/C,[4],105 % of control
same,T/C,[5],109 % of control
same,T/C,[6],110 % of control
same,T/C,[7],104 % of control
OCC(O)C(O)C(O)C(O)c1nc2ccccc2[nH]1 (configuration not stated),T/C,[3],119 % of control
same,T/C,[5],97 % of control
same,T/C,[7],95 % of control
same,T/C,[8],103 % of control
CNCCSS(=O)(=O)CCNC,T/C,[9],94 % of control
CNC(Cc1ccc(OCc2ccccc2)cc1)C(=O)NC(CC(C)C)C(=O)OC (configuration not stated) (H-[NMeY](Bn)-Leu-OMe; configuration not given here),T/C,"dose: 25.0 mg/kg/injection, schedule: Q01DX009 (ip), vehicle: saline",106 % of control
same,T/C,"dose: 50.0 mg/kg/injection, schedule: Q01DX009 (ip), vehicle: saline",99 % of control
same,T/C,"dose: 50.0 mg/kg/injection, schedule: Q04DX003 (ip), vehicle: saline",108 % of control
same,T/C,"dose: 100.0 mg/kg/injection, schedule: Q01DX009 (ip), vehicle: saline",92 % of control
same,T/C,"dose: 100.0 mg/kg/injection, schedule: Q04DX003 (ip), vehicle: saline",111 % of control
same,T/C,"dose: 200.0 mg/kg/injection, schedule: Q01DX009 (ip), vehicle: saline",106 % of control
same,T/C,"dose: 200.0 mg/kg/injection, schedule: Q04DX003 (ip), vehicle: saline",106 % of control
O=C1c2ccccc2C(=O)c2c(Nc3ccc(CCO)cc3)ccc(O)c21,T/C,[10],100 % of control
same,T/C,[11],100 % of control
same,T/C,[12],111 % of control
CO[C@H]1OC(=O)C=C2C1=C[C@H]1OC(=O)[C@@]3(C)CCC[C@@]2(C)[C@@H]13,T/C,"dose: 12.5 mg/kg/injection, schedule: Q01DX009 (ip), vehicle: Klucel (hydroxypropylcellulose) (HPC)",100 % of control
same,T/C,[1],100 % of control
CC1C(=O)CCC2(C)C1CCC1C3CCC(O)C3(C)CCC12 (configuration not stated),T/C,[5],95 % of control
same,T/C,[7],100 % of control
same,T/C,[8],91 % of control
CCN(C(=O)c1ccc(C(=O)N(CC)c2ccccc2)cc1)c1ccccc1,T/C,[5],100 % of control
same,T/C,[7],91 % of control
CC12CCCN(CCCl)C1CCC1C2CCC2(C)C1CCCN2CCCl (configuration not stated),T/C,"dose: 0.38 mg/kg/injection, schedule: Q01DX001 (ip), vehicle: saline",98 % of control
same,T/C,"dose: 0.75 mg/kg/injection, schedule: Q01DX001 (ip), vehicle: saline",102 % of control
same,T/C,"dose: 0.78 mg/kg/injection, schedule: Q01DX001 (ip), vehicle: saline",102 % of control
same,T/C,"dose: 1.5 mg/kg/injection, schedule: Q01DX001 (ip), vehicle: saline",109 % of control
same,T/C,"dose: 1.56 mg/kg/injection, schedule: Q01DX001 (ip), vehicle: saline",100 % of control
same,T/C,"dose: 3.13 mg/kg/injection, schedule: Q01DX001 (ip), vehicle: saline",107 % of control
same,T/C,"dose: 6.25 mg/kg/injection, schedule: Q01DX001 (ip), vehicle: saline",116 % of control
CCN(CC)CCOc1cc(C)ccc1C(C)C,T/C,[13],96 % of control
same,T/C,"dose: 25.0 mg/kg/injection, schedule: Q04DX003 (ip), vehicle: saline with Tween-80",109 % of control
same,T/C,[2],111 % of control
same,T/C,[3],109 % of control
same,T/C,[4],107 % of control
same,T/C,[5],118 % of control
CCCSc1nc(N)nc2nc[nH]c12,T/C,"dose: 100.0 mg/kg/injection, schedule: Q04DX003 (ip), vehicle: alcohol",100 % of control
same,T/C,"dose: 200.0 mg/kg/injection, schedule: Q04DX003 (ip), vehicle: alcohol",104 % of control
same,T/C,"dose: 400.0 mg/kg/injection, schedule: Q04DX003 (ip), vehicle: alcohol",90 % of control
O=C(Nc1ccc(C2=NCCCN2)cc1)Nc1cccc(C(=O)Nc2ccc(C3=NCCCN3)cc2)c1,T/C,"dose: 16.5 mg/kg/injection, schedule: Q01DX009 (ip), vehicle: saline with Tween-80",200 % of control
same,T/C,[13],272 % of control
CCCCCCCCC(O)CCCC (configuration not stated),T/C,[10],91 % of control
same,T/C,[11],91 % of control
same,T/C,[12],100 % of control
CNCCNC,T/C,"dose: 50.0 mg/kg/injection, schedule: Q01DX005 (ip), vehicle: saline",100 % of control
same,T/C,[9],98 % of control
same,T/C,"dose: 200.0 mg/kg/injection, schedule: Q01DX005 (ip), vehicle: saline",95 % of control
CS(=O)(=O)OCCSc1nc2ccccc2n1Cc1ccccc1,T/C,"dose: 25.0 mg/kg/injection, schedule: Q01DX001 (ip), vehicle: saline with Tween-80",100 % of control
same,T/C,"dose: 50.0 mg/kg/injection, schedule: Q01DX001 (ip), vehicle: saline with Tween-80",106 % of control
same,T/C,"dose: 100.0 mg/kg/injection, schedule: Q01DX001 (ip), vehicle: saline with Tween-80",101 % of control
COc1cc2c(c(OC)c1OC)-c1ccc(O)cc1[C@@H](NC(C)=O)CC2,T/C,"dose: 2.5 mg/kg/injection, schedule: Q01DX010 (ip), vehicle: water",86 % of control
same,T/C,"dose: 5.0 mg/kg/injection, schedule: Q01DX010 (ip), vehicle: water",118 % of control
same,T/C,"dose: 10.0 mg/kg/injection, schedule: Q01DX010 (ip), vehicle: water",109 % of control
O=C(O)/C=C/c1c[nH]c(=O)[nH]c1=O,T/C,"dose: 25.0 mg/kg/injection, schedule: Q04DX003 (ip), vehicle: Klucel (hydroxypropylcellulose) (HPC)",101 % of control
same,T/C,"dose: 50.0 mg/kg/injection, schedule: Q04DX003 (ip), vehicle: Klucel (hydroxypropylcellulose) (HPC)",101 % of control
same,T/C,[10],115 % of control
C/C(=C\c1ccc(N(C)C)cc1C)[N+](=O)[O-],T/C,[2],116 % of control and 118 % of control
same,T/C,[4],114 % of control and 124 % of control
same,T/C,[6],122 % of control
C[n+]1ccc(NC(=O)c2ccc(NC(=O)c3cccc(C(=O)Nc4ccc(C(=O)Nc5cc[n+](C)cc5)cc4)c3)cc2)cc1,T/C,"dose: 66.0 mg/kg/injection, schedule: Q04DX003 (ip), vehicle: saline with Tween-80",160 % of control
same,T/C,[5],239 % of control
NC(=O)c1ccc(-c2c3ccccc3cc3c2ccc2ccccc23)cc1,T/C,[2],95 % of control
same,T/C,[4],89 % of control
same,T/C,[6],89 % of control
same,T/C,"dose: 400.0 mg/kg/injection, schedule: Q01DX009 (ip), vehicle: saline with Tween-80",106 % of control
